PMC4336569 (European journal of medicinal chemistry, 2014)
“Also recorded” adds a separate entry of the source.

What was measured:
MOR [1] = target: MOR (Rattus norvegicus, UniProt P33535); assay: Opioid receptor binding assay, [3H]DAMGO displacement; conditions: vs 4 (Gly4 replaced by β-Ala)
DOR [2] = target: DOR (Rattus norvegicus, UniProt P33533); assay: Opioid receptor binding assay, [3H]DSLET displacement
hNK1R [3] = target: T1, hNK1R (Homo sapiens, UniProt P25103); assay: hNK1/CHO cell membrane radioligand binding assay
T1 sequence (P25103 whole entry): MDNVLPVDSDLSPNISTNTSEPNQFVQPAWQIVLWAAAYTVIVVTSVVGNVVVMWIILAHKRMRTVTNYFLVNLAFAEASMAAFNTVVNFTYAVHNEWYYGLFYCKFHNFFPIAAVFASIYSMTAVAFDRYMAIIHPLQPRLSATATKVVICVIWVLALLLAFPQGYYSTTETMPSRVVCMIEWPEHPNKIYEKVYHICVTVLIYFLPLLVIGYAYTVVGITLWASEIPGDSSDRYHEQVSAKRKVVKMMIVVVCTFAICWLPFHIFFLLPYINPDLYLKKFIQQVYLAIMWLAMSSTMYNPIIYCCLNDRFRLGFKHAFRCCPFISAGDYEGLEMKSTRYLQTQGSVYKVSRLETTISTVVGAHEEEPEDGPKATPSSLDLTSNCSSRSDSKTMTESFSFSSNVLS

MOR [4] = assay: Functional GPI; assay type: biochemical, guinea pig
mice [5] = assay: Tail-flick test
naïve rats = assay: Tail-flick test; conditions: for effect in tail-flick test: i.t., 30 min after administration; for effect in tail-flick test / toxic effect / Response (ED50) with 95% confidence limits, Tail-flick: naïve rats; for duration of antinociceptive effect: after intrathecal administration, data not shown; for antinociceptive effect in acute pain: 1 nmol i.t.; for toxic effect: 9.5 nmol i.t.; for Response (ED50) with 95% confidence limits, Tail-flick: acute pain
CCI-exposed rats [6] = assay: von Frey test; conditions: for Response (ED50) with 95% confidence limits, von Frey: neuropathic pain
CCI-exposed rats [7] = assay: Cold plate test; conditions: for Response (ED50) with 95% confidence limits, Cold plate: neuropathic pain
DOR [8] = target: DOR (Mus musculus, UniProt P32300); assay: Functional mouse vas deferens; assay type: biochemical; conditions: from 22 to 33, MVD assay
Chain of DOR (Mus musculus, UniProt P32300) (P32300 whole entry): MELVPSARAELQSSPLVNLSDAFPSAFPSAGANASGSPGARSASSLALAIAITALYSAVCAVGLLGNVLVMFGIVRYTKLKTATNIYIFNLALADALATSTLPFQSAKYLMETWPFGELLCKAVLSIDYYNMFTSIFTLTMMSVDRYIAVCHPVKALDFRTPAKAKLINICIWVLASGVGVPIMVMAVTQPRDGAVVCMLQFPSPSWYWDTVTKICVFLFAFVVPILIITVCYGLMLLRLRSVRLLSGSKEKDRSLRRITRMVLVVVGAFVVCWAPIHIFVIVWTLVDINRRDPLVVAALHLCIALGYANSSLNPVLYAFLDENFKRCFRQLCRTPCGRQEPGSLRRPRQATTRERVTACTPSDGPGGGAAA

CCI-exposed rats [9] = assay: Tolerance development in neuropathic pain model; assay type: in vivo, rat; conditions: von Frey and cold plate, repeated i.t. 1 nmol
hNK1R [10] = target: T1, hNK1R; assay: Functional NK1R assay; assay type: cell-based; conditions: compared to lead compound 4
CCI-exposed rats [11] = assay: Cross tolerance with morphine in neuropathic pain model; assay type: in vivo, rat; conditions: for cross tolerance with morphine: single dose of morphine 3.5 nmol on day 13 after repeated hybrid 1 nmol i.t.
mice [12] = conditions: 3.8 μmol/kg i.v., previous study; cited from earlier work

Chain of DOR (Rattus norvegicus, UniProt P33533) (P33533 whole entry): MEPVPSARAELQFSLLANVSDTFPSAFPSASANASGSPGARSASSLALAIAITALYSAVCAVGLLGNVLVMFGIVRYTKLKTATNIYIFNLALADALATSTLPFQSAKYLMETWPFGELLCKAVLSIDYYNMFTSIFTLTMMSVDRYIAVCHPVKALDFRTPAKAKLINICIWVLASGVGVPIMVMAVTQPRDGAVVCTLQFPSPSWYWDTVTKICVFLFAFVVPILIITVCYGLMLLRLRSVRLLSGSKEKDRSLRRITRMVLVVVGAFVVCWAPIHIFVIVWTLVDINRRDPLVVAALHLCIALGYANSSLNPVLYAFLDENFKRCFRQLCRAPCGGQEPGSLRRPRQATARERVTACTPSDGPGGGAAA
Chain of MOR (Rattus norvegicus, UniProt P33535) (P33535 whole entry): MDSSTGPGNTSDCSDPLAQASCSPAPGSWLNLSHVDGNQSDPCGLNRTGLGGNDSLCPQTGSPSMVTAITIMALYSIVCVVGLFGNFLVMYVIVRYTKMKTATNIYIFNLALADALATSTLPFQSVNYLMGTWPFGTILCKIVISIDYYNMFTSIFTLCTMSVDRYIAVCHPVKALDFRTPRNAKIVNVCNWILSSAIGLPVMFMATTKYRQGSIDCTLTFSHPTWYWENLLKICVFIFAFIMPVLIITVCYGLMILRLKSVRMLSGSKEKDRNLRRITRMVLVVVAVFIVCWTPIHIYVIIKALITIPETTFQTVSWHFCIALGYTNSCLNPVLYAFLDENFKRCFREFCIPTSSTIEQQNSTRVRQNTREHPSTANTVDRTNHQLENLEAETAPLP

## Cc1cc(O)cc(C)c1C[C@H](N)C(=O)N[C@H](CCCNC(=N)N)C(=O)N[C@H]1Cc2ccccc2CN(CCC(=O)N(C)Cc2cc(C(F)(F)F)cc(C(F)(F)F)c2)C1=O [Compound 21, H-Dmt-D-Arg-Aba-β-Ala-NMe-3’,5’-(CF3)2-Bn]
MOR [1]
  improvement of MOR binding: 5 fold
DOR [2]; vs 4 (Gly4 replaced by β-Ala)
  improvement of DOR binding: 5 fold
hNK1R [3]; vs 4
  loss in NK1R binding: 120 fold

## Cc1cc(O)cc(C)c1C[C@H](N)C(=O)N[C@H](CCCNC(=N)N)C(=O)N[C@H]1Cc2ccccc2CN(CC(=O)N(Cc2cc(C(F)(F)F)cc(C(F)(F)F)c2)CC(C)C)C1=O [Compound 27, H-Dmt-D-Arg-Aba-Gly-NiBu-3’,5’-(CF3)2-Bn]
MOR [4]; read-out: GPI (IC50 nM), representative of MOR activation
  IC50: 19.7 nM

## CC(=O)N[C@H]1Cc2ccccc2CN(CC(=O)N(C)Cc2cc(C(F)(F)F)cc(C(F)(F)F)c2)C1=O [Compound 6, Ac-Aba-Gly-NMe-3’,5’-(CF3)2-Bn]
Mice [5]; doses up to 1.21 μmol/kg i.v., not shown
  activity in tail-flick test after i.v. administration: did not show any activity at all; also recorded: not active at all
naïve rats
  effect in tail-flick test: very weak
CCI-exposed rats [6]; i.t., day 7 after CCI
  antiallodynic activity: significantly more potent than the opioid parent compounds
CCI-exposed rats [7]; i.t., day 7 after CCI
  effect on hyperalgesia: more potent in antagonizing hyperalgesia than hybrid 4 and approximately similar to 22

## Cc1cc(O)cc(C)c1C[C@H](N)C(=O)N[C@H](CCCNC(=N)N)C(=O)N[C@H]1Cc2ccccc2CN(CC(N)=O)C1=O [Compound 7, H-Dmt-D-Arg-Aba-Gly-NH2]
naïve rats
  effect in tail-flick test: increase the nociceptive threshold
CCI-exposed rats [6]; 1 nmol i.t., CCI rats
  toxic effect: toxic effect

## Cc1cc(O)cc(C)c1C[C@H](N)C(=O)N[C@H](CCCNC(=N)N)C(=O)N[C@H]1Cc2ccccc2CN(CCC(N)=O)C1=O [Compound 33, H-Dmt-D-Arg-Aba-β-Ala-NH2]
Mice [5]; 1.21 μmol/kg i.v., mice
  antinociceptive response: largely exceeded that of morphine
naïve rats
  duration of antinociceptive effect: 2 h
  effect in tail-flick test: increase the nociceptive threshold
CCI-exposed rats [6]; 1 nmol i.t., CCI rats
  toxic effect: toxic effect
DOR [8]
  shift in DOR potency: 10 fold

## Cc1cc(O)cc(C)c1C[C@H](N)C(=O)N[C@H](CCCNC(=N)N)C(=O)N[C@H]1Cc2ccccc2CN(CCC(=O)N(C)Cc2ccccc2)C1=O [Compound 22, H-Dmt-D-Arg-Aba-β-Ala-NMe-Bn]
CCI-exposed rats [9]
  antinociceptive effect by area under curve: most potent antinociceptive effect
DOR [2]; vs 21
  DOR binding increase: 10 factor
MOR [4]; vs 21
  improvement of in vitro agonism at MOR: 6 fold
hNK1R [3]; vs 21
  improvement of NK1R binding affinity: approximately 4 times
naïve rats
  antinociceptive effect in acute pain: 30 % MPE
  toxic effect: did not induce a toxic effect
  Response (ED50) with 95% confidence limits, Tail-flick: 2.78 (1.80-4.30) nmol i.t.
  duration of antinociceptive effect: 2 h
  effect in tail-flick test: increase the nociceptive threshold
CCI-exposed rats [6]; 1 nmol i.t., CCI rats
  toxic effect: not observed
CCI-exposed rats [6]; 1 nmol i.t., day 7 after CCI
  attenuation of allodynia, von Frey: 80 % MPE
CCI-exposed rats [6]; i.t., CCI rats, doses up to 11 nmol
  toxic signs: lack of toxic signs
CCI-exposed rats [6]; day 7 after CCI
  Response (ED50) with 95% confidence limits, von Frey: 0.24 (0.18 - 0.32) nmol i.t.
hNK1R [10]
  loss in antagonism potency: 1.5 log unit
CCI-exposed rats [11]; 22 1 nmol i.t. after repeated morphine 3.5 nmol
  effect of a single dose in rats rendered tolerant to morphine: not effective
CCI-exposed rats [11]
  cross tolerance with morphine: cross tolerance
CCI-exposed rats [7]; 10 nmol i.t., not shown
  toxicity: lacking toxicity
CCI-exposed rats [7]; day 7 after CCI
  Response (ED50) with 95% confidence limits, Cold plate: 0.34 (0.25 - 0.46) nmol i.t.

## Cc1cc(O)cc(C)c1C[C@H](N)C(=O)N[C@H](CCCNC(=N)N)C(=O)N[C@H]1Cc2ccccc2CN(CC(=O)N(C)Cc2cc(C(F)(F)F)cc(C(F)(F)F)c2)C1=O [Compound 4, H-Dmt-D-Arg-Aba-Gly-NMe-3’,5’-(CF3)2-Bn]
Mice [12]
  antinociceptive potency relative to i.p. administered morphine: 3.7 times
naïve rats
  antinociceptive effect in acute pain: 30 % MPE
  toxic effect: seizures and death of animals
  Response (ED50) with 95% confidence limits, Tail-flick: 1.66 (1.11-2.51) nmol i.t.
  effect in tail-flick test: increase the nociceptive threshold
CCI-exposed rats [6]; 1 nmol i.t., CCI rats
  toxic effect: not observed
CCI-exposed rats [6]; 1 nmol i.t., day 7 after CCI
  attenuation of allodynia, von Frey: 60 % MPE
CCI-exposed rats [6]; highest investigated dose 9.5 nmol i.t., CCI rats, not shown
  toxic effect: toxic effect
CCI-exposed rats [6]; day 7 after CCI
  Response (ED50) with 95% confidence limits, von Frey: 1.05 (0.65 - 1.69) nmol i.t.
CCI-exposed rats [11]
  cross tolerance with morphine: cross tolerance
CCI-exposed rats [7]; day 7 after CCI
  Response (ED50) with 95% confidence limits, Cold plate: 1.14 (0.74 - 1.77) nmol i.t.

## Cc1cc(O)cc(C)c1C[C@H](N)C(=O)N[C@H](CCCNC(=N)N)C(=O)N[C@H]1Cc2ccccc2CN(CC(=O)N(Cc2ccccc2)CC(C)C)C1=O [Compound 28, H-Dmt-D-Arg-Aba-Gly-NiBu-Bn]
MOR [4]; GPI
  GPI agonist character: P.A ^e
